Test results as given in patent US7115642B2, “Substituted diphenyl isoxazoles, pyrazoles and oxadiazoles useful for treating HCV infection” (priority 2003, dated 2006).

System: HCV replicon (5-2 Luc replicon-comprising cells)
Test: HCV replicon assay (luciferase)
Assay type: cell-based, Hepatitis C virus
Details: 5-2 Luc replicon cells, luciferase readout; read-out: Replicon IC50
Source text: In one embodiment, the inhibitory activity of the compounds can be confirmed in a replicon assay that assesses the ability of a test compound to block or inhibit HCV replication in replicon cells. One example of a suitable replicon assay is the liver cell-line Huh 7-based replicon assay described in Lohmann et al., 1999, Science 285:110–113. A specific example of this replicon assay which utilizes luciferase translation is provided in the Examples Section. In one embodiment of this assay, the amount of test compound that yields a 50% reduction in translation as compared to a control cell (IC50) may be determined.
The inhibitory activity of certain exemplary compounds of the invention was confirmed using an HCV replicon assay. The HCV replicon can include such features as the HCV 5′ untranslated region including the HCV IRES, the HCV 3′ untranslated region, selected HCV genes encoding HCV polypeptides, selectable markers, and a reporter gene such as luciferase, GFP, etc. In the assay, actively dividing 5-2 Luc replicon-comprising cells (obtained from Ralf Bartenschlager; see Lohmann et al., 1999, Science 285:110–113) were seeded at a density of between about 5,000 and 7,500 cells/well onto 96 well plates (about 90 μl of cells per well) and incubated at 37° C. and 5% CO2 for 24 hours. Then, the test compound (in a volume of about 10 μl) was added to the wells at various concentrations and the cells were incubated for an additional 24 hours before luciferase assay. Briefly, the Bright-Glo reagent was diluted 1:1 with PBS and 100 μl of diluted reagent was added to each well. After 5 min of incubation at room temperature, luciferin emission was quantified with a luminometer. In this assay, the amount of test compound that yielded a 50% reduction in luciferase activity (IC50) was determined.
In TABLE 1, a value of “+” indicates an IC50 of 10 μM or less in the specified assay; a value of “−” indicates an IC50 of greater than 10 μM in the specified assay.

Row | SMILES | IC50 [µM]
1 | O=C(Nc1cccc(-c2cc(-c3c(Cl)cccc3OC3CCNC3)no2)c1)C(Cl)Cl (centres unmarked) [Compound 593] | < 10
2 | CC(=O)N1CCC(Oc2cccc(Cl)c2-c2cc(-c3cccc(NC(=O)C(Cl)Cl)c3)on2)C1 (centres unmarked) [Compound 595] | < 10
3 | CS(=O)(=O)N1CCC(Oc2cccc(Cl)c2-c2cc(-c3cccc(NC(=O)C(Cl)Cl)c3)on2)C1 (centres unmarked) [Compound 596] | < 10
4 | CCNC(=O)N1CCC(Oc2cccc(Cl)c2-c2cc(-c3cccc(NC(=O)C(Cl)Cl)c3)on2)C1 (centres unmarked) [Compound 597] | < 10
5 | C[N+](C)(C)CCOc1cccc(Cl)c1-c1cc(-c2cccc(NC(=O)C(Cl)Cl)c2)on1 [Compound 598] | < 10
6 | CCNC(=O)Oc1cccc(Cl)c1-c1cc(-c2cccc(NC(=O)C(Cl)Cl)c2)on1 [Compound 600] | < 10
7 | CN(C)C(=O)Oc1cccc(Cl)c1-c1cc(-c2cccc(NC(=O)C(Cl)Cl)c2)on1 [Compound 601] | < 10
8 | O=C(Nc1cccc(-c2cc(-c3c(Cl)cccc3OC(=O)N3CCOCC3)no2)c1)C(Cl)Cl [Compound 602] | < 10
9 | O=C(Nc1cccc(-c2cc(-c3c(Cl)cccc3OP(=O)(O)O)no2)c1)C(Cl)Cl [Compound 603] | < 10
10 | O=C(Nc1cccc(-c2cc(-c3c(Cl)cccc3OCc3ccncc3)no2)c1)C(Cl)Cl [Compound 604] | < 10
11 | O=C(Nc1cccc(-c2cc(-c3c(Cl)cccc3OCc3cccnc3)no2)c1)C(Cl)Cl [Compound 605] | < 10
12 | CCCNC(=O)Oc1cccc(Cl)c1-c1cc(-c2cccc(NC(=O)C(Cl)Cl)c2)on1 [Compound 606] | < 10
13 | COP(=O)(O)Oc1cccc(Cl)c1-c1cc(-c2cccc(NC(=O)C(Cl)Cl)c2)on1 [Compound 607] | < 10
14 | N#Cc1ccccc1-c1cc(-c2cccc(NC(=O)C(Cl)Cl)c2)on1 [Compound 610] | < 10
15 | CN1CCN(c2ccccc2-c2cc(-c3cccc(NC(=O)C(Cl)Cl)c3)on2)CC1 [Compound 611] | < 10
16 | O=C(Nc1cccc(-c2cc(-c3ccccc3N3CCOCC3)no2)c1)C(Cl)Cl [Compound 612] | < 10
17 | N#Cc1cccc(F)c1-c1cc(-c2cccc(NC(=O)C(Cl)Cl)c2)on1 [Compound 613] | < 10
18 | O=C(Nc1cccc(-c2cc(-c3ccccc3N3CCN(c4ccccn4)CC3)no2)c1)C(Cl)Cl [Compound 614] | > 10
19 | O=C(Nc1cccc(-c2cc(-c3c(Cl)cccc3N3CCC4(CC3)OCCO4)no2)c1)C(Cl)Cl [Compound 615] | < 10
20 | O=C(Nc1cccc(-c2cc(-c3c(Cl)cccc3N3CCSCC3)no2)c1)C(Cl)Cl [Compound 616] | < 10
21 | CC(=O)N1CCN(c2cccc(Cl)c2-c2cc(-c3cccc(NC(=O)C(Cl)Cl)c3)on2)CC1 [Compound 617] | < 10

Row | SMILES | IC50 [µM]
22 | N#CC1(c2ccccc2)CCN(c2cccc(Cl)c2-c2cc(-c3cccc(NC(=O)C(Cl)Cl)c3)on2)CC1 [Compound 618] | < 10
23 | O=C(Nc1cccc(-c2cc(-c3c(Cl)cccc3N3CCN(c4ccc(Cl)cc4)CC3)no2)c1)C(Cl)Cl [Compound 619] | < 10
24 | O=C(Nc1cccc(-c2cc(-c3c(Cl)cccc3N3CCN(c4cccc(Cl)c4)CC3)no2)c1)C(Cl)Cl [Compound 620] | < 10
25 | O=C(Nc1cccc(-c2cc(-c3ccccc3CO)no2)c1)C(Cl)Cl [Compound 621] | < 10
26 | O=C(Nc1cccc(-c2cc(-c3c(Cl)cccc3N3CCN(C(=O)OCc4ccccc4)CC3)no2)c1)C(Cl)Cl [Compound 622] | < 10
27 | CCOC(=O)N1CCN(c2cccc(Cl)c2-c2cc(-c3cccc(NC(=O)C(Cl)Cl)c3)on2)CC1 [Compound 624] | < 10
28 | NC(=O)C1CCN(c2cccc(Cl)c2-c2cc(-c3cccc(NC(=O)C(Cl)Cl)c3)on2)CC1 [Compound 625] | < 10
29 | CCN1CCN(c2cccc(Cl)c2-c2cc(-c3cccc(NC(=O)C(Cl)Cl)c3)on2)CC1 [Compound 627] | < 10
30 | CN(C)C(=O)CN1CCN(c2cccc(Cl)c2-c2cc(-c3cccc(NC(=O)C(Cl)Cl)c3)on2)CC1 [Compound 628] | < 10
31 | CN(C)CCN1CCN(c2cccc(Cl)c2-c2cc(-c3cccc(NC(=O)C(Cl)Cl)c3)on2)CC1 [Compound 630] | < 10
32 | O=C(Nc1cccc(-c2cc(-c3c(Cl)cccc3N3CCN(CC(=O)N4CCOCC4)CC3)no2)c1)C(Cl)Cl [Compound 631] | < 10
33 | CC(C)N1CCN(c2cccc(Cl)c2-c2cc(-c3cccc(NC(=O)C(Cl)Cl)c3)on2)CC1 [Compound 632] | < 10
34 | CC(=O)N1CCC(COc2cccc(Cl)c2-c2cc(-c3cccc(NC(=O)C(Cl)Cl)c3)on2)CC1 [Compound 634] | < 10
35 | CN(Cc1cccnc1)c1cccc(Cl)c1-c1cc(-c2cccc(NC(=O)C(Cl)Cl)c2)on1 [Compound 635] | < 10
36 | O=C(Nc1cccc(-c2cc(-c3c(Cl)cccc3N3CCc4ccccc4C3)no2)c1)C(Cl)Cl [Compound 636] | < 10
37 | O=C(Nc1cccc(-c2cc(-c3c(Cl)cccc3N3CCC(Cc4ccccc4)CC3)no2)c1)C(Cl)Cl [Compound 637] | < 10
38 | O=C(Nc1cccc(-c2cc(-c3c(Cl)cccc3N3CCC(c4ccccc4)CC3)no2)c1)C(Cl)Cl [Compound 638] | < 10
39 | CC(C)(C)OC(=O)N1CCC(CCOc2cccc(Cl)c2-c2cc(-c3cccc(NC(=O)C(Cl)Cl)c3)on2)CC1 [Compound 639] | < 10
40 | O=C(Nc1cccc(-c2cc(-c3c(Cl)cccc3OCCC3CCNCC3)no2)c1)C(Cl)Cl [Compound 640] | < 10
41 | O=C(Nc1cccc(-c2cc(-c3c(Cl)cccc3N3CCN(C(=O)C4CCC4)CC3)no2)c1)C(Cl)Cl [Compound 641] | < 10
42 | O=C(Nc1cccc(-c2cc(-c3c(Cl)cccc3N3CCN(C(=O)c4ccccc4)CC3)no2)c1)C(Cl)Cl [Compound 642] | < 10

Row | SMILES | IC50 [µM]
43 | O=C(Nc1cccc(-c2cc(-c3c(Cl)cccc3N3CCN(C(=O)C4CCCO4)CC3)no2)c1)C(Cl)Cl (centres unmarked) [Compound 643] | < 10
44 | CC(C)C(=O)N1CCN(c2cccc(Cl)c2-c2cc(-c3cccc(NC(=O)C(Cl)Cl)c3)on2)CC1 [Compound 644] | < 10
45 | CC(=O)N1CCC(CCOc2cccc(Cl)c2-c2cc(-c3cccc(NC(=O)C(Cl)Cl)c3)on2)CC1 [Compound 645] | < 10
46 | O=C(Nc1cccc(-c2cc(-c3c(Cl)cccc3OCCC3CCN(C(=O)c4ccccn4)CC3)no2)c1)C(Cl)Cl [Compound 646] | < 10
47 | O=C(Nc1cccc(-c2cc(-c3c(Cl)cccc3N3CCN(C(=O)CCc4ccccc4)CC3)no2)c1)C(Cl)Cl [Compound 647] | < 10
48 | CCC(=O)N1CCN(c2cccc(Cl)c2-c2cc(-c3cccc(NC(=O)C(Cl)Cl)c3)on2)CC1 [Compound 648] | < 10
49 | O=C(Nc1cccc(-c2cc(-c3c(Cl)cccc3N3CCN(Cc4ccncc4)CC3)no2)c1)C(Cl)Cl [Compound 650] | < 10
50 | O=C(Nc1cccc(-c2cc(-c3c(Cl)cccc3N3CCN4CCCC4C3)no2)c1)C(Cl)Cl (centres unmarked) [Compound 651] | < 10
51 | O=C(Nc1cccc(-c2cc(-c3c(Cl)cccc3N3CCN(CCN4CCCC4)CC3)no2)c1)C(Cl)Cl [Compound 652] | < 10
52 | O=C(Nc1cccc(-c2cc(-c3c(Cl)cccc3N3CCN(CCc4ccccn4)CC3)no2)c1)C(Cl)Cl [Compound 653] | < 10
53 | O=C(Nc1cccc(-c2cc(-c3c(Cl)cccc3N3CCN(Cc4ccc(Cl)cc4)CC3)no2)c1)C(Cl)Cl [Compound 654] | < 10
54 | CC(C)(C)OC(=O)N1CCCCC1C(=O)N1CCN(c2cccc(Cl)c2-c2cc(-c3cccc(NC(=O)C(Cl)Cl)c3)on2)CC1 (centres unmarked) [Compound 656] | < 10
55 | O=C(Nc1cccc(-c2cc(-c3c(Cl)cccc3N3CCN(C(=O)c4cc(C(F)(F)F)cc(C(F)(F)F)c4)CC3)no2)c1)C(Cl)Cl [Compound 658] | < 10
56 | COc1cccc(C(=O)N2CCN(c3cccc(Cl)c3-c3cc(-c4cccc(NC(=O)C(Cl)Cl)c4)on3)CC2)c1 [Compound 659] | < 10
57 | O=C(Nc1cccc(-c2cc(-c3c(Cl)cccc3N3CCN(C(=O)c4cccc([N+](=O)[O-])c4)CC3)no2)c1)C(Cl)Cl [Compound 660] | < 10
58 | O=C(Nc1cccc(-c2cc(-c3c(Cl)cccc3N3CCN(C(=O)c4ccc(C(F)(F)F)cc4)CC3)no2)c1)C(Cl)Cl [Compound 661] | < 10
59 | O=C(Nc1cccc(-c2cc(-c3c(Cl)cccc3N3CCN(C(=O)c4ccc(F)cc4)CC3)no2)c1)C(Cl)Cl [Compound 662] | < 10
60 | N#Cc1cccc(C(=O)N2CCN(c3cccc(Cl)c3-c3cc(-c4cccc(NC(=O)C(Cl)Cl)c4)on3)CC2)c1 [Compound 663] | < 10
61 | COc1ccc(C(=O)N2CCN(c3cccc(Cl)c3-c3cc(-c4cccc(NC(=O)C(Cl)Cl)c4)on3)CC2)cc1 [Compound 664] | < 10
62 | O=C(Nc1cccc(-c2cc(-c3c(Cl)cccc3N3CCN(C(=O)C4CCCCN4)CC3)no2)c1)C(Cl)Cl (centres unmarked) [Compound 666] | < 10
